Key:
NCI-H2122 cells = test: Caspase-Glo 3/7 apoptosis assay; format: cell-based, human; conditions: NCI-H2122 KRAS G12C; single agent; 48 hours; Compound 1 1 μM, trametinib 50 nM
Method: (§1) Two thousand cells per well were seeded in 384 well white plate, and then treated with compounds for 24 or 48 hours (37° C., 5% CO2). Cell caspase-3/7 activity, a major hallmark of apoptosis, was measured using Caspase-Glo® 3/7 detection assay (Promega) following the manufactures's protocol.

NCI-H358 cells = test: Caspase-Glo 3/7 apoptosis assay; format: cell-based, human; conditions: NCI-H358 KRAS G12C; single agent; 48 hours; Compound 1 1 μM, trametinib 50 nM
Method: as §1

NCI-H1944 = test: NSCLC Cell Viability Assay; format: cell-based; conditions: Homo sapiens; NCI-H1944, KRAS G13D; single agent
Method: (§2) Cell proliferation was measured using CellTiter-Glo luciferase-based ATP detection assay (Promega) following the manufactures's protocol. IC50 determinations were performed using GraphPad Prism software (GraphPad, Inc., San Diego, CA).

NCI-H2009 = test: NSCLC Cell Viability Assay; format: cell-based; conditions: Homo sapiens; NCI-H2009, KRAS G12A; single agent
Method: as §2

Calu-1 = test: NSCLC Cell Viability Assay; format: cell-based; conditions: Homo sapiens; Calu-1, KRAS G12C; single agent
Method: as §2

NCI-H441 = test: NSCLC Cell Viability Assay; format: cell-based; conditions: Homo sapiens; NCI-H441, KRAS G12V; single agent
Method: as §2

NCI-H727 = test: NSCLC Cell Viability Assay; format: cell-based; conditions: Homo sapiens; NCI-H727, KRAS G12V; single agent
Method: as §2

COR-L23 = test: NSCLC Cell Viability Assay; format: cell-based; conditions: Homo sapiens; COR-L23, KRAS G12V; single agent
Method: as §2

LCLC-97TM1 = test: NSCLC Cell Viability Assay; format: cell-based; conditions: Homo sapiens; LCLC-97TM1, KRAS G12V; single agent
Method: as §2

HCC1588 = test: NSCLC Cell Viability Assay; format: cell-based; conditions: Homo sapiens; HCC1588, KRAS G12D; single agent
Method: as §2

Calu-6 = test: NSCLC Cell Viability Assay; format: cell-based; conditions: Homo sapiens; Calu-6, KRAS Q61K; single agent
Method: as §2

NCI-H2122 = test: NSCLC Cell Viability Assay; format: cell-based; conditions: Homo sapiens; NCI-H2122, KRAS G12C; single agent
Method: as §2

A-427 = test: NSCLC Cell Viability Assay; format: cell-based; conditions: Homo sapiens; A-427, KRAS G12D; single agent
Method: as §2

A549 = test: NSCLC Cell Viability Assay; format: cell-based; conditions: Homo sapiens; A549, KRAS G12S; single agent
Method: as §2

NCI-H1373 = test: NSCLC Cell Viability Assay; format: cell-based; conditions: Homo sapiens; NCI-H1373, KRAS G12C; single agent
Method: as §2

NCI-H23 = test: NSCLC Cell Viability Assay; format: cell-based; conditions: Homo sapiens; NCI-H23, KRAS G12C; single agent
Method: as §2

DV-90 = test: NSCLC Cell Viability Assay; format: cell-based; conditions: Homo sapiens; DV-90, KRAS G13D; single agent
Method: as §2

LS123 = test: CRC Cell Viability Assay; format: cell-based; conditions: Homo sapiens, LS-123; LS123, KRAS G12S; single agent
Method: (§3) Two thousand cells per well were seeded in 96 or 384 well white plate, and then treated with indicated compounds for 72 hours (37° C., 5% CO2). Cell proliferation was measured using CellTiter-Glo luciferase-based ATP detection assay (Promega) following the manufacture's protocol. IC50 determinations were performed using GraphPad Prism software (GraphPad, Inc., San Diego, CA).

SW620 = test: CRC Cell Viability Assay; format: cell-based; conditions: Homo sapiens, SW-620; SW620, KRAS G12V; single agent
Method: as §3

SW948 = test: CRC Cell Viability Assay; format: cell-based; conditions: Homo sapiens; SW948, KRAS Q61L; single agent
Method: as §3

SW837 = test: CRC Cell Viability Assay; format: cell-based; conditions: Homo sapiens; SW837, KRAS G12C; single agent
Method: as §3

SK-CO-1 = test: CRC Cell Viability Assay; format: cell-based; conditions: Homo sapiens; SK-CO-1, KRAS G12V; single agent
Method: as §3

SW1116 = test: CRC Cell Viability Assay; format: cell-based; conditions: Homo sapiens, SW 1116; SW1116, KRAS G12A; single agent
Method: as §3

LS513 = test: CRC Cell Viability Assay; format: cell-based; conditions: Homo sapiens, LS-513; LS513, KRAS G12D; single agent
Method: as §3

NCI-H747 = test: CRC Cell Viability Assay; format: cell-based; conditions: Homo sapiens; NCI-H747, KRAS G13D; single agent
Method: as §3

HCT-116 = test: CRC Cell Viability Assay; format: cell-based; conditions: Homo sapiens; HCT-116, KRAS G13D; single agent
Method: as §3

LS180 = test: CRC Cell Viability Assay; format: cell-based; conditions: Homo sapiens; LS180, KRAS G12D; single agent
Method: as §3

SW480 = test: CRC Cell Viability Assay; format: cell-based; conditions: Homo sapiens; SW480, KRAS G12V; single agent
Method: as §3

SNU-C2A = test: CRC Cell Viability Assay; format: cell-based; conditions: Homo sapiens, KRAS G12A, single agent
Method: as §3

T84 = test: CRC Cell Viability Assay; format: cell-based; conditions: Homo sapiens; T84, KRAS G13D; single agent
Method: as §3

NCI-H716 = test: CRC Cell Viability Assay; format: cell-based; conditions: Homo sapiens; NCI-H716, KRAS R97I; single agent
Method: as §3

LoVo = test: CRC Cell Viability Assay; format: cell-based; conditions: Homo sapiens, KRAS G13D, single agent
Method: as §3

IC50 (NCI-H1944) [µM]	IC50 (NCI-H2009) [µM]	IC50 (Calu-1) [µM]	IC50 (NCI-H441) [µM]	IC50 (NCI-H727) [µM]	IC50 (HCC1588) [µM]	IC50 (Calu-6) [µM]	IC50 (NCI-H2122) [µM]	IC50 (A549) [µM]	IC50 (NCI-H1373) [µM]	IC50 (NCI-H23) [µM]	IC50 (SW620) [µM]	IC50 (SW948) [µM]	SMILES	caspase-3/7 activity (NCI-H2122 cells)	caspase-3/7 activity (NCI-H358 cells)	IC50 (COR-L23) [µM]	IC50 (LCLC-97TM1) [µM]	IC50 (A-427) [µM]	IC50 (DV-90) [µM]	IC50 (LS123) [µM]	further results
2.62	2.28	2.3	5.21	4.53	0.82	1.47	1.16	1.36	4.2	3.42	1.83	2.18	C[C@H]1CNC(=O)c2cnn3ccc(nc23)N[C@H](C)c2cc(F)ccc2O1 [Compound 1, (7S,13R)-11-fluoro-7,13-dimethyl-6,7,13,14-tetrahydro-1,15-ethenopyrazolo[4,3-f][1,4,8,10]benzoxatriazacyclotridecin-4(5H)-one]	modest increases	modest increases	2.2	0.93	0.83	7.27	3.06	IC50 (SW837): 4.18 µM; IC50 (SK-CO-1): 1.2 µM; IC50 (SW1116): 10.8 µM; IC50 (LS513): 2.22 µM; IC50 (NCI-H747): 1.94 µM; IC50 (HCT-116): 1.66 µM; IC50 (LS180): 18.6 µM; IC50 (SW480): 2.87 µM; IC50 (SNU-C2A): 8.91 µM; IC50 (T84): 5.31 µM; IC50 (NCI-H716): 0.667 µM; IC50 (LoVo): 3.07 µM
> 10	> 10	> 10	> 10	0.003	> 10	0.012	0.01	0.055	> 10	0.063	0.042	0.144	CC(=O)Nc1cccc(-n2c(=O)n(C3CC3)c(=O)c3c(Nc4ccc(I)cc4F)n(C)c(=O)c(C)c32)c1 [Trametinib, N-(3-{3-cyclopropyl-5-[(2-fluoro-4-iodophenyl)amino]-6,8-dimethyl-2,4,7-trioxo-3,4,6,7-tetrahydropyrido[4,3-d]pyrimidin-1(2H)-yl}phenyl)acetamide]	increased	increased	0.164	0.344	0.06	0.014	10	IC50 (SW837): 0.016 µM; IC50 (SK-CO-1): 0.007 µM; IC50 (SW1116): 0.035 µM; IC50 (LS513): 0.006 µM; IC50 (NCI-H747): 0.011 µM; IC50 (HCT-116): 0.024 µM; IC50 (LS180): > 10 µM; IC50 (SW480): 0.013 µM; IC50 (SNU-C2A): 24 µM; IC50 (T84): 0.547 µM; IC50 (NCI-H716): 0.459 µM; IC50 (LoVo): 0.006 µM

From patent US20230398119A1, “COMBINATION THERAPY INVOLVING DIARYL MACROCYCLIC COMPOUNDS” (TURNING POINT THERAPEUTICS, INC., priority 2019, published 2023)
